In US6916791B2, “Androgen derivatives and uses thereof” (Strakan Limited, priority 1999, dated 2005):

Tests used:
[1] = orchiectomised male rats
[2] = mice; compared with testosterone administered by the same route; cited from earlier work

**Q.** For `C[C@]12CC[C@H]3[C@@H](CCC4=CC(=O)CC[C@@]43C)[C@@H]1CC[C@@H]2O[C@@H]1O[C@H](CO)[C@@H](O)[C@H](O)[C@H]1O` [testosterone glucoside, Testosterone-17-β-1′-β′-D-glucopyranose], which “bioavailability, oral” value ([1]; 1.56 mg orally daily for 6 days, serum testosterone 4 hours after final dose) is on record?
**A.** bioavailable when given orally

**Q.** What about the metabolism to testosterone ([1]; oral or intramuscular, daily for 6 days) of the same compound?
**A.** readily metabolised to testosterone

**Q.** And the “biological activity in vivo” value [2]?
**A.** very little activity in vivo, and certainly less than testosterone
